From patent EP3434287B1, “SHORT AND ULTRA-SHORT ANTIMICROBIAL LIPOPEPTIDES AND USE THEREOF” (Arta Peptidion S.r.l.s., priority 2017, dated 2019)
Converted amounts (≈) assume the structure as drawn. “And” between values parts separate entries of the source, which are not always exact repeats. Identical values can stand only once. Like-named read-outs stand apart in the source and are kept apart here. Residues, ends and D or L forms follow the SMILES beside them. *: point of attachment. Myristoyl = CCCCCCCCCCCCCC(=O)*; Lauroyl = CCCCCCCCCCCC(=O)*; Octanoyl = CCCCCCCC(=O)*; Hexanoyl = CCCCCC(=O)*

Experiments:
[1] = test system: C. albicans ATCC 90029; type: cell-based; settings: RPMI-1640, 30° C for 48 h
Procedure: (§1) The minimum inhibitory concentration values (MICs) of the lipopeptides and of conventional antibiotics were determined by the broth microdilution susceptibility test following the guidelines of the NCCLS with mid-log phase cultures. Serial two-fold dilutions of each peptide were prepared (final volume of 50 ul) in 96-well polypropylene microtiter plates (UNIFO, Treviso, Italy) RPMI-1640 for fungi. Each dilution series included con-trol wells without peptide. A total of 50 ul of the adjusted inoculum (approximately 5 × 10^5 cells/ml for bacteria or 5 × 10^4 cells/ml for fungi, in the appropriate medium) was added to each well. To evaluate the MIC, microtiter plates with bacteria were incubated at 37° C overnight, while those with fungi were incubated at 30° C for 48 h.
(§2) This example was performed on two different strain of C.albicans. Both strain are human clinical isolate recovered from a patient with generalized candidiasis.

[2] = test system: S.aureus; type: cell-based, S. aureus (ATCC 25923)
Procedure: (§3) The antimicrobial activity of a lipopeptide can be determined using a method known in the art, for example, the broth-dilution method. Essentially, this method involves the growth of a microorganism in a liquid medium until it reaches the logarithmic phase. The test lipopeptide is serially diluted with growth medium for the test bacterium in the wells of a multiwell plate. An optimal concentration of the microorganism is added to the wells containing the serially diluted lipopeptide. The plate is incubated in a thermostat at a temperature of 37° C. for a time sufficient for the microorganism to grow. The growth of the microorganism, evaluated in comparison with a negative control (microorganism grown in the absence of the lipopeptide), is determined by detecting the absorbance of the solution containing the bacterium, for example, at 605 nm.
as §1, with “Italy) with MH broth for bacteria and” for “Italy)”, “h. The fatty acid tested were: C6 (hexanoic),C8 (octanoic),C10 (decanoic),C12 (lauric),C14 (mystiric).” for “h.”
as §1, with “Italy) with MH broth for bacteria and” for “Italy)”

[3] = test system: P.aeruginosa; type: cell-based, Pseudomonas aeruginosa ATCC 27853
Procedure: as §3
as §1, with “Italy) with MH broth for bacteria and” for “Italy)”, “h. The fatty acid tested were: C6 (hexanoic),C8 (octanoic),C10 (decanoic),C12 (lauric),C14 (mystiric).” for “h.”
as §1, with “Italy) with MH broth for bacteria and” for “Italy)”, “control” for “con-trol”

[4] = test system: E.coli; type: cell-based, Escherichia coli ATCC 25922
Procedure: as §3
as §1, with “Italy) with MH broth for bacteria and” for “Italy)”, “h. The fatty acid tested were: C6 (hexanoic),C8 (octanoic),C10 (decanoic),C12 (lauric),C14 (mystiric).” for “h.”
as §1, with “Italy) with MH broth for bacteria and” for “Italy)”, “control” for “con-trol”

[5] = Cytotoxicity, MTT assay; type: cell-based; settings: human, A549 cells (lung cancer epithelial cell line), treated for 24-72 h, read-out: LC50 (the source's name)
Procedure: In the present invention, cytotoxicity of the lipopeptides against a epithelial cell line was also determined, for example, A549 cells (lung cancer). Cells were cultured in the presence and in the absence of peptides and the damage to the membrane was evaluated by the vital stain MTT.
The colorimetric 3-(4,5-dimethylthiazol-2-yl)-2,5-diphenyl tetrazolium bromide (MTT) assay was performed to assess the metabolic activity of cells plated into 96-well culture plates (10 5 cell/well) and treated with 0.5-25 µM of in complete medium for 24-72 h. At the end of treatments, fullerenes containing medium were removed and replaced with fresh medium; for the cytotoxic assay, 20 µL stock MTT (5 mg/mL) was added to each well, and cells were then incubated for 4 hr at 37 °C. The converted MTT dye was solubilised with acidic isopropanol (0.04 N HCl in absolute isopropanol). Absorbance was measured at 540 nm and 630 nm using a microplate reader (Automated Microplate Reader EL311, BIO-TEK Instruments, Vermont, USA). All measurements were done in triplicate and each experiment was repeated at least three times.

[6] = test system: C.albicans SC5314; assay: MIC against filamentous yeast strain, broth microdilution susceptibility test (NCCLS); type: cell-based; settings: RPMI-1640, 30° C for 48 h
Procedure: as §1, §2

[7] = Example 1, effect of fatty acid length on RFWR, MH broth, 37° C overnight

Structure (SMILES): CCCCCCCCCCCC(=O)N[C@@H](CCCNC(=N)N)C(=O)N[C@@H](CCCNC(=N)N)C(=O)N[C@@H](Cc1ccccc1)C(=O)N[C@@H](Cc1c[nH]c2ccccc12)C(=O)N[C@@H](CCCNC(=N)N)C(=O)N[C@@H](CCCNC(=N)N)C(N)=O [Lipopeptide 16, Lau-RRFWRR-NH2] (Lauroyl-RRFWRR-NH2)
- MIC against C. albicans ATCC strain [1]: 1.56 µg/mL (≈ 1.35 µM)

Structure (SMILES): CCCCCCCCCCCC(=O)N[C@@H](CCCNC(=N)N)C(=O)N[C@@H](Cc1ccccc1)C(=O)N[C@@H](Cc1c[nH]c2ccccc12)C(=O)N[C@@H](CCCNC(=N)N)C(N)=O [Lipopeptide 3, Lau-RFWR-NH2] (Lauroyl-RFWR-NH2)
- MIC against S.aureus [2]: 3.66 µM (≈ 3.09 µg/mL)
- Bacteria (MIC, ug/ml) S.aureus [2, 7]: 12.5 µg/mL
- MIC against P. aeruginosa [3]: 14.7 µM
- Bacteria (MIC, ug/ml) P.aeruginosa [3, 7]: 50 µg/mL
- MIC against P. aeruginosa ([3]; MH broth, 37° C overnight): 12.5 µg/mL
- MIC against E. coli [4]: 7.39 µM
- Bacteria (MIC, ug/ml) E.coli [4, 7]: 25 µg/mL
- CC50 [5]: 100 µg/mL and ~118 µM

Structure (SMILES): CCCCCCCCCCCC(=O)N[C@@H](CCCNC(=N)N)C(=O)N[C@@H](CCCNC(=N)N)C(=O)N[C@@H](Cc1ccccc1)C(=O)N[C@@H](Cc1c[nH]c2ccccc12)C(N)=O [Lipopeptide 14] (Lauroyl-RRFW-NH2)
- MIC against P. aeruginosa [3]: 14.7 µM
- MIC against P. aeruginosa ([3]; MH broth, 37° C overnight): 12.5 µg/mL
- MIC against E. coli [4]: 14.7 µM
- MIC against E. coli ([4]; MH broth, 37° C overnight): 12.5 µg/mL

Structure (SMILES): CCCCCCCCCCCC(=O)N[C@@H](CCCNC(=N)N)C(=O)N[C@@H](CCCNC(=N)N)C(=O)N[C@@H](Cc1ccccc1)C(=O)N[C@@H](Cc1c[nH]c2ccccc12)C(N)=O [Lipopeptide 14, Lau-RRFW-NH2] (Lauroyl-RRFW-NH2)
- MIC against C.albicans SC5314 strain [6]: 12.5 µg/mL (≈ 14.8 µM)

Structure (SMILES): CCCCCC(=O)N[C@@H](CCCNC(=N)N)C(=O)N[C@@H](Cc1ccccc1)C(=O)N[C@@H](Cc1c[nH]c2ccccc12)C(=O)N[C@@H](CCCNC(=N)N)C(N)=O [Lipopeptide 1] (Hexanoyl-RFWR-NH2)
- Bacteria (MIC, ug/ml) S.aureus [2, 7]: >400 µg/mL
- Bacteria (MIC, ug/ml) P.aeruginosa [3, 7]: >400 µg/mL
- Bacteria (MIC, ug/ml) E.coli [4, 7]: >400 µg/mL

Structure (SMILES): CCCCCCCCCCCC(=O)N[C@@H](CCCNC(=N)N)C(=O)N[C@H](C(=O)N[C@@H](Cc1c[nH]c2ccccc12)C(=O)N[C@@H](CCCNC(=N)N)C(N)=O)[C@@H](C)CC [Lipopeptide 6, Lau-RIWR-NH2] (Lauroyl-RIWR-NH2)
- MIC against S.aureus [2]: 1.77 µM (≈ 1.44 µg/mL)
- MIC against P. aeruginosa [3]: 14.7 µM
- MIC against P. aeruginosa ([3]; MH broth, 37° C overnight): 12.5 µg/mL
- MIC against E. coli [4]: 7.39 µM
- MIC against C.albicans SC5314 strain [6]: 12.5 µg/mL (≈ 15.4 µM)
- CC50 [5]: 100 µg/mL and ~118 µM

Structure (SMILES): CCCCCCCC(=O)N[C@@H](CCCNC(=N)N)C(=O)N[C@@H](Cc1ccccc1)C(=O)N[C@@H](Cc1c[nH]c2ccccc12)C(=O)N[C@@H](CCCNC(=N)N)C(N)=O [Lipopeptide 2] (Octanoyl-RFWR-NH2)
- Bacteria (MIC, ug/ml) S.aureus [2]: 100 µg/mL
- Bacteria (MIC, ug/ml) P.aeruginosa [3]: 100 µg/mL
- Bacteria (MIC, ug/ml) E.coli [4]: 100 µg/mL

Structure (SMILES): CCCCCCCCCCCCCC(=O)N[C@@H](CCCNC(=N)N)C(=O)N[C@@H](Cc1ccccc1)C(=O)N[C@@H](Cc1c[nH]c2ccccc12)C(=O)N[C@@H](CCCNC(=N)N)C(N)=O [Lipopeptide 5] (Myristoyl-RFWR-NH2)
- Bacteria (MIC, ug/ml) S.aureus [2]: 6.125 µg/mL
- Bacteria (MIC, ug/ml) P.aeruginosa [3]: 50 µg/mL
- Bacteria (MIC, ug/ml) E.coli [4]: 25 µg/mL

Structure (SMILES): N=C(N)NCCC[C@H](NC(=O)[C@H](Cc1c[nH]c2ccccc12)NC(=O)[C@H](Cc1ccccc1)NC(=O)[C@@H](N)CCCNC(=N)N)C(N)=O [Lipopeptide 0] (H-RFWR-NH2; N-terminus and C-terminus assumed)
- Bacteria (MIC, ug/ml) S.aureus [2]: >400 µg/mL
- Bacteria (MIC, ug/ml) P.aeruginosa [3]: >400 µg/mL
- Bacteria (MIC, ug/ml) E.coli [4]: >400 µg/mL

Structure (SMILES): CCCCCCCCCCCC(=O)N[C@@H](CCCNC(=N)N)C(=O)N[C@@H](CCSC)C(=O)N[C@@H](Cc1c[nH]c2ccccc12)C(=O)N[C@@H](CCCNC(=N)N)C(N)=O [Lipopeptide 8, Lau-RMWR-NH2] (Lauroyl-RMWR-NH2)
- MIC against C.albicans SC5314 strain [6]: 12.5 µg/mL (≈ 15.1 µM)

Structure (SMILES): CCCCCCCCCCCC(=O)N[C@@H](CCCNC(=N)N)C(=O)N[C@@H](Cc1ccccc1)C(=O)N[C@@H](Cc1c[nH]c2ccccc12)C(=O)N[C@@H](CCCNC(=N)N)C(N)=O [Lipopeptide 4] (Lauroyl-RFWR-NH2)
- Bacteria (MIC, ug/ml) S.aureus [2]: 3.125 µg/mL
- Bacteria (MIC, ug/ml) P.aeruginosa [3]: 12.5 µg/mL
- Bacteria (MIC, ug/ml) E.coli [4]: 12.5 µg/mL
